Measured values taken from the supplement of paper PMC11061612.

What was measured:
Experiment in all cases: combination Emax (second highest fraction inhibited in the dose matrix, 72 h); higher = more inhibition; extreme values may be limits of the assay
ACHN (Kidney Carcinoma) = system: ACHN (Kidney Carcinoma)
Method in brief: (§1)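 After 24 hours at 37°C and 5% CO2 in 1536-well plates, cells in DMEM/F12 or RPMI plus 10% FBS received two-drug dose matrices for 72 hours. Viability came from CellTiter-Glo 2.0 luminescence and was scaled as inhibition, anchored at 0 by vehicle wells and at 1 by blank wells. Combination Emax is taken as the second-highest inhibition in the matrix, and Bliss excess as the observed combination effect less EA + EB − EA·EB, with EA and EB the single-agent effects.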

[1] = system: AMO-1 (Plasma Cell Myeloma)
Method in brief: as §1

[2] = system: BT-549 (Breast Carcinoma)
Method in brief: as §1

[3] = system: Ca9-22 (Head and Neck Carcinoma)
Method in brief: as §1

D-263MG (Glioblastoma) = system: D-263MG (Glioblastoma)
Method in brief: as §1

EW-24 (Ewing's Sarcoma) = system: EW-24 (Ewing's Sarcoma)
Method in brief: as §1

[4] = system: EoL-1-cell (Acute Myeloid Leukemia)
Method in brief: as §1

[5] = system: Hs-766T (Pancreatic Carcinoma)
Method in brief: as §1

[6] = system: KARPAS-299 (T-Cell Non-Hodgkin's Lymphoma)
Method in brief: as §1

[7] = system: LU-65 (Non-Small Cell Lung Carcinoma)
Method in brief: as §1

[8] = system: MLMA (Other Blood Carcinomas)
Method in brief: as §1

NB69 (Neuroblastoma) = system: NB69 (Neuroblastoma)
Method in brief: as §1

[9] = system: NCI-H358 (Lung Adenocarcinoma)
Method in brief: as §1

[10] = system: NCI-H727 (Other Solid Carcinomas)
Method in brief: as §1

[11] = system: PANC-04-03 (Pancreatic Carcinoma)
Method in brief: as §1

TGW (Neuroblastoma) = system: TGW (Neuroblastoma)
Method in brief: as §1

TK10 (Kidney Carcinoma) = system: TK10 (Kidney Carcinoma)
Method in brief: as §1

UACC-62 (Melanoma) = system: UACC-62 (Melanoma)
Method in brief: as §1

YH-13 (Glioblastoma) = system: YH-13 (Glioblastoma)
Method in brief: as §1

[12] = system: Caov-4 (Ovarian Carcinoma)
Method in brief: as §1

SMILES	combination Emax (ACHN (Kidney Carcinoma))	combination Emax [1]	combination Emax [2]	combination Emax [3]	combination Emax (D-263MG (Glioblastoma))	combination Emax (EW-24 (Ewing's Sarcoma))	combination Emax [4]	combination Emax [5]	combination Emax [6]	combination Emax [7]	combination Emax [8]	combination Emax (NB69 (Neuroblastoma))	combination Emax [9]	combination Emax [10]	combination Emax [11]	combination Emax (TGW (Neuroblastoma))	combination Emax (TK10 (Kidney Carcinoma))	combination Emax (UACC-62 (Melanoma))	combination Emax (YH-13 (Glioblastoma))	combination Emax [12]
CN(CCO)CC[C@H](CSc1ccccc1)Nc1ccc(S(=O)(=O)NC(=O)c2ccc(N3CCC([C@@H](O)c4ccccc4-c4ccc(Cl)cc4)CC3)cc2)cc1S(=O)(=O)C(F)(F)F [AZD4320] + Cc1cc2ncnn2cc1Nc1ncc2c(n1)n(C1CCOCC1)c(=O)n2C [AZD7648] (first compound max 1 µM, 7x7, partner max 10 µM)	0.162	0.216	0.178	0.163	0.108	0.851	1	0.405	0.221	0.494	0.474	0.801	0.186	0.198	0.229	0.979	0.444	0.248	0.227	–
CN(CCO)CC[C@H](CSc1ccccc1)Nc1ccc(S(=O)(=O)NC(=O)c2ccc(N3CCC([C@@H](O)c4ccccc4-c4ccc(Cl)cc4)CC3)cc2)cc1S(=O)(=O)C(F)(F)F [AZD4320] + Nc1ccn([C@@H]2O[C@H](CO)[C@@H](O)C2(F)F)c(=O)n1 [Gemcitabine] (first compound max 1 µM, 7x7, partner max 0.3 µM)	0.969	0.953	0.199	0.927	0.363	0.98	1	0.311	0.812	0.492	0.896	0.997	0.396	0.634	0.461	0.934	0.301	0.72	0.852	0.685
N#Cc1cnc(Nc2cc(NC[C@H]3CNCCO3)c(C(F)(F)F)cn2)cn1 [SRA737] + C=CCn1c(=O)c2cnc(Nc3ccc(N4CCN(C)CC4)cc3)nc2n1-c1cccc(C(C)(C)O)n1 [AZD1775] (first compound max 10 µM, partner max 1 µM)	0.865	0.967	0.804	0.957	0.575	0.639	1	0.512	0.966	0.887	0.826	0.969	0.763	0.667	0.543	0.922	0.653	0.304	0.812	0.854
C[C@@H](c1ccc2nccn2c1)n1nnc2ncc(-c3cnn(C)c3)nc21 [Savolitinib] + Cc1c2c(nn1C)CSCc1cc(n(C)n1)CSc1cc(c3ccccc3c1)OCCCc1c(C(=O)O)n(C)c3c-2c(Cl)ccc13 [AZD5991] (first compound max 1 µM, 7x7, partner max 1 µM)	0.174	1	0.225	0.143	0.366	0.196	1	0.233	0.936	0.179	0.33	0.74	0.108	0.203	0.165	0.214	0.116	0.545	0.276	0.421
CN(CCO)CC[C@H](CSc1ccccc1)Nc1ccc(S(=O)(=O)NC(=O)c2ccc(N3CCC([C@@H](O)c4ccccc4-c4ccc(Cl)cc4)CC3)cc2)cc1S(=O)(=O)C(F)(F)F [AZD4320] + C[C@@H](Nc1cc(F)cc(F)c1)c1cc(C(=O)N(C)C)cc2c(=O)cc(N3CCOCC3)oc12 [AZD8186] (first compound max 1 µM, 7x7, partner max 3 µM)	0.252	0.244	0.456	0.648	0.38	0.921	1	0.469	0.247	0.483	0.701	0.97	0.394	0.378	0.257	0.968	0.54	0.67	0.694	0.461
Cc1cc2ncnn2cc1Nc1ncc2c(n1)n(C1CCOCC1)c(=O)n2C [AZD7648] + CN(C)CCCOc1ccc(-c2ccc3ncc4c(c3c2)n(C2CCOCC2)c(=O)n4C)cn1 [AZD0156] (first compound max 10 µM, 7x7, partner max 1 µM)	0.293	0.431	0.254	0.226	0.25	0.364	0.238	0.525	0.237	0.334	0.671	0.565	0.349	0.294	0.347	0.351	0.442	0.302	0.345	0.344
CN(CCO)CC[C@H](CSc1ccccc1)Nc1ccc(S(=O)(=O)NC(=O)c2ccc(N3CCC([C@@H](O)c4ccccc4-c4ccc(Cl)cc4)CC3)cc2)cc1S(=O)(=O)C(F)(F)F [AZD4320] + Cn1cnc2c(F)c(Nc3ccc(Br)cc3Cl)c(C(=O)NOCCO)cc21 [Selumetinib] (first compound max 1 µM, 7x7, partner max 3 µM)	0.346	0.418	0.327	0.593	0.237	0.892	1	0.57	0.307	0.753	0.496	0.998	0.564	0.973	0.406	0.97	0.402	0.868	0.511	0.617
Cc1cc2ncnn2cc1Nc1ncc2c(n1)n(C1CCOCC1)c(=O)n2C [AZD7648] + C=CCn1c(=O)c2cnc(Nc3ccc(N4CCN(C)CC4)cc3)nc2n1-c1cccc(C(C)(C)O)n1 [AZD1775] (first compound max 10 µM, partner max 1 µM)	0.893	0.755	0.679	0.734	0.392	0.458	0.978	0.555	0.927	0.692	0.89	0.887	0.524	0.351	0.555	0.732	0.63	0.536	0.449	0.922
CN(CCO)CC[C@H](CSc1ccccc1)Nc1ccc(S(=O)(=O)NC(=O)c2ccc(N3CCC([C@@H](O)c4ccccc4-c4ccc(Cl)cc4)CC3)cc2)cc1S(=O)(=O)C(F)(F)F [AZD4320] + C=CCn1c(=O)c2cnc(Nc3ccc(N4CCN(C)CC4)cc3)nc2n1-c1cccc(C(C)(C)O)n1 [AZD1775] (first compound max 1 µM, partner max 1 µM)	0.986	0.732	0.751	0.851	0.381	0.913	1	0.398	0.938	0.763	0.994	0.952	0.498	0.515	0.486	1	0.571	0.71	0.449	0.857
N#Cc1cnc(Nc2cc(NC[C@H]3CNCCO3)c(C(F)(F)F)cn2)cn1 [SRA737] + O=c1[nH]cc(F)c(=O)[nH]1 [5-Fluorouracil] (first compound max 10 µM, 7x7, partner max 20 µM)	0.781	0.882	0.711	0.606	0.35	0.585	0.994	0.405	0.996	0.778	0.77	0.805	0.631	0.428	0.474	0.693	0.551	0.098	0.542	0.749
Cc1cc2ncnn2cc1Nc1ncc2c(n1)n(C1CCOCC1)c(=O)n2C [AZD7648] + C[C@@H]1COCCN1C2=NC(=NC(=C2)C3(CC3)[S@](=N)(=O)C)C4=C5C=CNC5=NC=C4 [AZD6738] (first compound max 10 µM, 7x7, partner max 10 µM)	0.888	0.862	0.441	0.919	0.647	0.61	0.967	0.636	0.927	0.656	0.67	0.865	0.606	0.545	0.522	0.739	0.753	0.624	0.656	0.916
CN(CCO)CC[C@H](CSc1ccccc1)Nc1ccc(S(=O)(=O)NC(=O)c2ccc(N3CCC([C@@H](O)c4ccccc4-c4ccc(Cl)cc4)CC3)cc2)cc1S(=O)(=O)C(F)(F)F [AZD4320] + CC(=O)O[C@H]1C(=O)[C@@]2(C)[C@H]([C@H](OC(=O)c3ccccc3)[C@]3(O)C[C@H](OC(=O)[C@H](O)[C@@H](NC(=O)c4ccccc4)c4ccccc4)C(C)=C1C3(C)C)[C@]1(OC(C)=O)CO[C@@H]1C[C@@H]2O [Paclitaxel] (first compound max 1 µM, 7x7, partner max 3 µM)	0.71	1	0.853	0.997	0.95	0.968	1	0.436	0.837	0.951	–	1	0.916	0.82	0.585	1	0.821	0.808	1	0.795
